From patent publication US9845323B2, “2-(1,3,4-oxadiazol-2-yl)-7-oxo-1,6-diazabicyclo[3.2.1 ]octane derivatives and their use as antibacterial agents” (WOCKHARDT LIMITED, priority 2014, dated 2017)
≈ marks a conversion by molar mass, not a printed value. Where two headings read alike, the source gives them in different places.

Legend:
[1] = tested on: E. coli NCTC 13353 (CTX-M15, OXA-1); experiment: Agar dilution MIC (CLSI), compound alone; format: cell-based
Description: (§1) The biological activity of representative compounds according to the invention against various bacterial strains was investigated. In a typical study, overnight grown bacterial cultures were diluted appropriately and inoculated on the agar media containing doubling dilutions of the test compounds. Observations for growth or no growth was performed after 16-20 hours of incubation at 35±2° C. in the ambient air. The overall procedure was performed as per Clinical and Laboratory Standards Institute (CLSI) recommendations, (Clinical and Laboratory Standards Institute (CLSI), Performance Standards for Antimicrobial Susceptibility Testing, 20th Informational Supplement, M 07-A9, Volume 32, No. 2, 2012). Molten Mueller Hinton Agar (BD, USA) containing serial dilutions of each antibacterial agent were poured on to the plates and allowed to solidify. Appropriate suspensions from the freshly grown cultures were prepared in normal saline so that about 10^4 CFU/spot of the organism was delivered on to the drug containing agar plates using automated multipoint inoculator (Mast, UK). The plates were incubated in Biochemical oxygen demand (BOD) incubator at 37° C. for 18 hours and then examined for growth.

[2] = tested on: K. pneumoniae H521 (KPC, SHV, TEM); experiment: Agar dilution MIC (CLSI), compound alone; format: cell-based
Description: as §1

[3] = tested on: K. Pneomoniae S48 (NDM, SHV, TEM); experiment: Agar dilution MIC (CLSI), compound alone; format: cell-based, K. pneumoniae
Description: as §1

[4] = tested on: Class C beta-lactamase CMY/DHA (E. coli M50); experiment: Beta-lactamase enzyme inhibition (Nitrocefin, crude enzyme); format: biochemical; details: Nitrocefin 100 μM
Description: (§2) Absorbance was measured at 485 nm by UV-spectrophotometer. The IC50 was calculated by plotting absorbance against concentration through Sigmoidal dose response curve using Graph Pad software.

[5] = molecular target: T1, Class D beta-lactamase OXA 23 (A baumannii NCTC 13301) (Acinetobacter baumannii, UniProt Q9L4P2); experiment: as above; format: biochemical; details: A baumannii NCTC 13301 (OXA 23), Nitrocefin 100 μM
T1 construct: preincubated mixture of crude enzyme and the compounds; endogenous in cells; host or cells: A. baumannii NCTC 13301 (crude enzyme preparation)
T1 sequence (Q9L4P2 18-273): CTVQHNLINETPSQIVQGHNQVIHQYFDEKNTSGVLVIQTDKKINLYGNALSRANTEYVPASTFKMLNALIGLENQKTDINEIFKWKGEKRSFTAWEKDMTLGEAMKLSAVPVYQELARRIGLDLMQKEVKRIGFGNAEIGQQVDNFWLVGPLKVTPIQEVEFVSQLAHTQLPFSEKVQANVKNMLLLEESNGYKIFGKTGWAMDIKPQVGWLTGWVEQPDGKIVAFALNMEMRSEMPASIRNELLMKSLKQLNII
Description: as §2

[6] = molecular target: Class A beta-lactamase SHV 18 (K. pneumoniae ATCC 700603) (Klebsiella pneumoniae, UniProt P0AD64); experiment: as above; format: biochemical
Class A beta-lactamase SHV 18 (K. pneumoniae ATCC 700603), sequence (P0AD64 22-286 limits assumed): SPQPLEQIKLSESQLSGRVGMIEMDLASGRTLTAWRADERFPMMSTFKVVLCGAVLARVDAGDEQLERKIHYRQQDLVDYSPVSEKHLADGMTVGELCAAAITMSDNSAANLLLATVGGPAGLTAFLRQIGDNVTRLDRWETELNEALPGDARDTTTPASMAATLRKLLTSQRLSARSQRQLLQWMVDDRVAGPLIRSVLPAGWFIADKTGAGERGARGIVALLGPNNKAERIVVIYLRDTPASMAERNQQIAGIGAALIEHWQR
Description: as §2

Citrobactor spp 58 MP = experiment: Agar dilution MIC of Ceftazidime, alone or with fixed 4 μg/ml compound; format: cell-based
Description: (§3) Agar dilution MIC was carried out in Muller Hinton Agar (Difco, USA) according to the recommendations of CLSI (M07-A9). In short, the plates were poured with a range of doubling increasing concentration of Ceftazidime and fixed 4 μg/ml compound according to invention containing MHA. The freshly overnight grown cultures were diluted in physiological saline to deliver per spot 10^4 CFU. The plates were inoculated with a multipoint inoculator (Mast, UK) and incubated at 35° C. for 18 hours. […] Table-5 provides the result of combination MIC results.

E. coli M 50 = experiment: as above; format: cell-based
Description: as §3

E. coli NCTC 13353 = experiment: as above; format: cell-based
Description: as §3

[7] = tested on: K. pneumoniae ATCC 700606; experiment: as above; format: cell-based
Description: as §3

K. pneumoniae H521 = experiment: as above; format: cell-based
Description: as §3

K. pneumoniae B 77 = experiment: Agar dilution MIC (CLSI), compound alone; format: cell-based; details: Klebsiella pneumoniae, B77; K. pneumoniae B 77; Table 3; read-out: MIC
Description: as §1

[8] = Escherichia coli, NCTC13353, E. coli NCTC 13353 (CTX-M15, OXA-1), compound alone, Table 2, read-out: MIC
[9] = Klebsiella pneumoniae, K. pneumoniae H521 (KPC, SHV, TEM), compound alone, Table 2, read-out: MIC
[10] = Klebsiella pneumoniae, K. Pneomoniae S48 (NDM, SHV, TEM), compound alone, Table 2, read-out: MIC
[11] = read-out: Beta-lactamase enzyme inhibition IC50, K. pneumoniae ATCC 700603 (SHV 18), Nitrocefin 100 μM
[12] = Ceftazidime + compound fixed at 4 mcg/ml

SMILES	IC50 [4] [µM]	IC50 [5] [µM]	MIC [1, 8] [mg/L]	MIC [2, 9] [mg/L]	MIC [3, 10] [mg/L]	IC50 [6, 11] [µM]	also measured
O=C1N2C[C@@H](CC[C@H]2c2nnc(Cc3ccc(Cl)cc3)o2)N1OS(=O)(=O)O [Example 10, (2S,5R)-sulfuric acid mono-{2-[5-(4-chloro-benzyl)-[1,3,4]-oxadiazol-2-yl]-7-oxo-1,6-diaza-bicyclo[3.2.1]oct-6-yl} ester]	0.01	0.108					MIC ([1]; Escherichia coli, NCTC13353): > 32 mg/L; MIC ([2]; Klebsiella pneumoniae): > 32 mg/L; MIC ([3]; Klebsiella pneumoniae): > 32 mg/L
O=C(O)[C@H]1/C(=C/CO)O[C@@H]2CC(=O)N21 [Clavulanic acid, clavulanic acid, reference compound]	> 10						
Nc1ccc(Cc2nnc([C@@H]3CC[C@@H]4CN3C(=O)N4OS(=O)(=O)O)o2)cc1 [Example 11, (2S,5R)-sulfuric acid mono-{2-[5-(4-amino-benzyl)-[1,3,4]-oxadiazol-2-yl]-7-oxo-1,6-diaza-bicyclo[3.2.1]oct-6-yl} ester]	0.013	0.108					MIC ([1]; Escherichia coli, NCTC13353): > 32 mg/L; MIC ([2]; Klebsiella pneumoniae): > 32 mg/L; MIC ([3]; Klebsiella pneumoniae): 32 mg/L (≈ 80.9 µM)
O=C1N2C[C@@H](CC[C@H]2c2nnc(C(c3ccccc3)c3ccccc3)o2)N1OS(=O)(=O)O [Example 8, (2S,5R)-sulfuric acid mono-[2-(5-benzhydryl-[1,3,4]-oxadiazol-2-yl)-7-oxo-1,6-diaza-bicyclo[3.2.1]oct-6-yl] ester]	0.017	0.008	> 32	> 32	> 32	0.037	
CN(C)c1ccc(Cc2nnc([C@@H]3CC[C@@H]4CN3C(=O)N4OS(=O)(=O)O)o2)cc1 [Example 12, (2S,5R)-sulfuric acid mono-{2-[5-(4-dimethylamino-benzyl)-[1,3,4]-oxadiazol-2-yl]-7-oxo-1,6-diaza-bicyclo[3.2.1]oct-6-yl} ester]	0.006	0.097	> 32	> 32	> 32	0.01	
O=C1N2C[C@@H](CC[C@H]2c2nnc(CCCc3ccccc3)o2)N1OS(=O)(=O)O [Example 7, (2S,5R)-sulfuric acid mono-{2-[5-(3-phenyl-propyl)-[1,3,4]-oxadiazol-2-yl]-7-oxo-1,6-diaza-bicyclo[3.2.1]oct-6-yl} ester]	0.004	0.115	> 32	> 32	32 (≈ 78.3 µM)	0.04	
O=C1N2C[C@@H](CC[C@H]2c2nnc(C[C@@H]3CCCN3)o2)N1OS(=O)(=O)O [Example 2, (2S,5R)-sulfuric acid mono-[2-(5-(S)-pyrrolidin-2-ylmethyl-[1,3,4]-oxadiazol-2-yl)-7-oxo-1,6-diaza-bicyclo[3.2.1]oct-6-yl] ester]		12.9	> 32	> 32	32 (≈ 85.7 µM)	0.027	
CC(C)(O/N=C(\C(=O)N[C@@H]1C(=O)N2C(C(=O)[O-])=C(C[n+]3ccccc3)CS[C@H]12)c1csc(N)n1)C(=O)O [Ceftazidime, ceftazidime, reference compound]							MIC of Ceftazidime alone (Citrobactor spp 58 MP; Ceftazidime alone, Table 5): 16 mg/L; MIC of Ceftazidime alone (E. coli M 50; Ceftazidime alone, Table 5): > 32 mg/L; MIC of Ceftazidime alone (E. coli NCTC 13353; Ceftazidime alone, Table 5): 32 mg/L; MIC of Ceftazidime alone ([7]; Ceftazidime alone, Table 5): 32 mg/L; MIC of Ceftazidime alone (K. pneumoniae H521; Ceftazidime alone, Table 5): > 32 mg/L
O=C1N2C[C@@H](CC[C@H]2c2nnc(Cc3ccc(O)cc3)o2)N1OS(=O)(=O)O [Example 13, (2S,5R)-sulfuric acid mono-{2-[5-(4-hydroxy-benzyl)-[1,3,4]-oxadiazol-2-yl]-7-oxo-1,6-diaza-bicyclo[3.2.1]oct-6-yl} ester]	0.0001	0.039				0.013	MIC ([1]; Escherichia coli, NCTC13353): > 32 mg/L; MIC ([2]; Klebsiella pneumoniae): > 32 mg/L; MIC ([3]; Klebsiella pneumoniae): > 32 mg/L
COc1ccc(Cc2nnc([C@@H]3CC[C@@H]4CN3C(=O)N4OS(=O)(=O)O)o2)cc1 [Example 14, (2S,5R)-sulfuric acid mono-{2-[5-(4-methoxy-benzyl)-[1,3,4]-oxadiazol-2-yl]-7-oxo-1,6-diaza-bicyclo[3.2.1]oct-6-yl} ester]	0.013	0.08	> 32	> 32	> 32		
O=C1N2C[C@@H](CC[C@H]2c2nnc(CC(c3ccccc3)c3ccccc3)o2)N1OS(=O)(=O)O [Example 9, (2S,5R)-sulfuric acid mono-{2-[5-(2,2-diphenyl-ethyl)-[1,3,4]-oxadiazol-2-yl]-7-oxo-1,6-diaza-bicyclo[3.2.1]oct-6-yl} ester]		0.24	> 32	> 32	> 32	0.004	
O=C1N2C[C@@H](CC[C@H]2c2nnc(CCc3ccccc3)o2)N1OS(=O)(=O)O [Example 6, (2S,5R)-sulfuric acid mono-[2-(5-phenyl-ethyl-[1,3,4]-oxadiazol-2-yl)-7-oxo-1,6-diaza-bicyclo[3.2.1]oct-6-yl] ester]	0.004	0.22					MIC ([1]; E. coli NCTC 13353 (CTX-M15, OXA-1), compound alone, Table 2): >32 mg/L; MIC ([2]; K. pneumoniae H521 (KPC, SHV, TEM), compound alone, Table 2): >32 mg/L; MIC ([3]; K. Pneomoniae S48 (NDM, SHV, TEM), compound alone, Table 2): >32 mg/L; IC50 ([6]; K. pneumoniae ATCC 700603 (SHV 18), Nitrocefin 100 μM, read-out: Beta-lactamase enzyme inhibition IC50): 0.032 µM; MIC of Ceftazidime in combination with the compound (Citrobactor spp 58 MP; [12]): 4 mg/L; MIC of Ceftazidime in combination with the compound (E. coli M 50; [12]): 8 mg/L; MIC of Ceftazidime in combination with the compound (E. coli NCTC 13353; [12]): 0.5 mg/L; MIC of Ceftazidime in combination with the compound [7, 12]: 8 mg/L; MIC of Ceftazidime in combination with the compound (K. pneumoniae H521; [12]): > 32 mg/L
O=C1N2C[C@@H](CC[C@H]2c2nnc(CC3CCNCC3)o2)N1OS(=O)(=O)O [Example 3, (2S,5R)-sulfuric acid mono-[2-(5-piperidin-4-ylmethyl-[1,3,4]-oxadiazol-2-yl)-7-oxo-1,6-diaza-bicyclo[3.2.1]oct-6-yl] ester]	0.02	5.72				0.039	MIC ([1]; Escherichia coli, NCTC13353): > 32 mg/L; MIC ([2]; Klebsiella pneumoniae): > 32 mg/L; MIC ([3]; Klebsiella pneumoniae): > 32 mg/L
NC(=O)[C@@H]1CC[C@@H]2CN1C(=O)N2OS(=O)(=O)O [Avibactam, avibactam, reference compound]	0.146					0.098	MIC (K. pneumoniae B 77): 32 mg/L (≈ 121 µM)
O=C1N2C[C@@H](CC[C@H]2c2nnc(CC3CNCCN3)o2)N1OS(=O)(=O)O (stereo partly drawn) [Example 4, (2S,5R)-sulfuric acid mono[2-(5-(RS)-piperazin-2-ylmethyl-[1,3,4]-oxadiazol-2-yl)-7-oxo-1,6-diaza-bicyclo[3.2.1]oct-6-yl] ester]		0.41				0.027	MIC ([1]; Escherichia coli, NCTC13353, 18 h, E. coli NCTC 13353 (CTX-M15, OXA-1), compound alone, Table 2, read-out: MIC): > 32 mg/L; MIC ([2]; Klebsiella pneumoniae, 18 h, K. pneumoniae H521 (KPC, SHV, TEM), compound alone, Table 2, read-out: MIC): > 32 mg/L; MIC ([3]; Klebsiella pneumoniae, 18 h, K. Pneomoniae S48 (NDM, SHV, TEM), compound alone, Table 2, read-out: MIC): > 32 mg/L
O=C1N2C[C@@H](CC[C@H]2c2nnc(CC3CNC3)o2)N1OS(=O)(=O)O [Example 1, (2S,5R)-Sulfuric acid mono-[2-(5-azetidin-3-ylmethyl-1,3,4-oxadiazol-2-yl)-7-oxo-1,6-diaza-bicyclo[3.2.1]oct-6-yl]ester]	0.402	3.95	> 32	> 32	> 32	0.027	
